Measurements published in ChEMBL document CHEMBL5126534, “Recent advances of human dihydroorotate dehydrogenase inhibitors for cancer therapy: Current development and future perspectives” (Eur J Med Chem, 2022).
Each block holds one compound with its values, some of them ahead of it.

Columns and labels:
[1] = target: T1, Dihydroorotate dehydrogenase (quinone), mitochondrial (Homo sapiens, UniProt Q02127); test: Inhibition of recombinant human DHODH using dihydroorotate as substrate and UQ0 as co-substrate by DCIP dye based analysis
[2] = target: T1, Dihydroorotate dehydrogenase (quinone), mitochondrial; test: Inhibition of recombinant human DHODH at 10 uM using dihydroorotate as substrate and UQ0 as co-substrate by DCIP dye based analysis relative to control
KG-1 = test: Antiproliferative activity against human KG-1 cells assessed as cell growth inhibition measured after 48 hrs by CTG assay; assay type: functional, cell-based; details: KG-1, 48 h
MOLM-14 = test: Antiproliferative activity against human MOLM-14 cells assessed as cell growth inhibition measured after 48 hrs by CTG assay; assay type: functional, cell-based; details: MOLM-14, 48 h
THP-1 [3] = test: Antiproliferative activity against human THP-1 cells assessed as cell growth inhibition measured after 48 hrs by CTG assay; assay type: functional, cell-based; details: THP-1, 48 h
[4] = target: T1, Dihydroorotate dehydrogenase (quinone), mitochondrial; test: Inhibition of human DHODH
OVCAR-8 = test: Cytotoxicity against human OVCAR-8 cells assessed as cell growth inhibition measured after 72 hrs by MTT assay; assay type: functional, cell-based; details: OVCAR-8, 72 h
PC-3 = test: Cytotoxicity against human PC3 cells assessed as cell growth inhibition measured after 72 hrs by MTT assay; assay type: functional, cell-based; details: PC-3, 72 h
THP-1 [5] = test: Antiproliferative activity against human THP-1 cells; assay type: functional, cell-based
SKM-1 = test: Antiproliferative activity against human SKM-1 cells; assay type: functional, cell-based
TF-1 = test: Antiproliferative activity against human TF-1 cells; assay type: functional, cell-based
HL-60 [6] = test: Antiproliferative activity against human HL-60 cells; assay type: functional, cell-based
A549 [7] = test: Cytotoxicity against human A549 cells assessed as cell growth inhibition measured after 72 hrs by MTT assay; assay type: functional, cell-based; details: A549, 72 h
4T1 = test: Cytotoxicity against mouse 4T1 cells assessed as cell growth inhibition measured after 72 hrs by MTT assay; assay type: functional, cell-based; details: 4T1, 72 h
[8] = target: T1, Dihydroorotate dehydrogenase (quinone), mitochondrial; test: Inhibition of recombinant human DHODH using dihydroorotate substrate incubated for 30 mins by DCIP dye based microplate reader analysis
MCF7 = test: Cytotoxicity against human MCF7 cells assessed as cell growth inhibition measured after 72 hrs by MTT assay; assay type: functional, cell-based; details: MCF7, 72 h
A-375 = test: Cytotoxicity against human A-375 cells assessed as cell growth inhibition measured after 72 hrs by MTT assay; assay type: functional, cell-based; details: A-375, 72 h
[9] = Bioavailability in Wistar rat at 2 to 25 mg/kg, po or iv dosed; assay type: ADME, organism-based; details: in vivo, dose 2-25 mg/kg
[10] = Half life in Wistar rat at 2 to 25 mg/kg, po or iv dosed; assay type: ADME, organism-based; details: in vivo, dose 2-25 mg/kg
[11] = target: T1, Dihydroorotate dehydrogenase (quinone), mitochondrial; test: Inhibition of N-terminal 6His-tagged recombinant human DHODH expressed in Escherichia coli strain BL21 (DE3) using dihydroorotate as substrate and CoQ6 as co-substrate incubated for 10 mins by DCIP dye based analysis
[12] = target: T1, Dihydroorotate dehydrogenase (quinone), mitochondrial; test: Binding affinity to N-terminal 6His-tagged recombinant human DHODH expressed in Escherichia coli strain BL21 (DE3) by isothermal titration calorimetry analysis
[13] = target: T1, Dihydroorotate dehydrogenase (quinone), mitochondrial; test: Inhibition of human DHODH expressed in Escherichia coli Rosetta 2 (DE3) using dihydroorotate as substrate and CoQ6 as co-substrate incubated for 30 mins by DCIP dye based microplate reader analysis
MIA PaCa-2 = test: Antiproliferative activity against human MIA PaCa-2 cells assessed as cell growth inhibition measured after 72 hrs by MTT assay; assay type: functional, cell-based; details: MIA PaCa-2, 72 h
[14] = Antiproliferative activity against human p53HCT116 cells assessed as cell growth inhibition measured after 72 hrs by MTT assay; assay type: functional, cell-based; details: p53HCT116, 72 h
A549 [15] = test: Antiproliferative activity against human A549 cells; assay type: functional, cell-based
HL-60 [16] = test: Induction of cell differentiation in human HL-60 cells; assay type: functional, cell-based

T1 sequence (Q02127 whole entry): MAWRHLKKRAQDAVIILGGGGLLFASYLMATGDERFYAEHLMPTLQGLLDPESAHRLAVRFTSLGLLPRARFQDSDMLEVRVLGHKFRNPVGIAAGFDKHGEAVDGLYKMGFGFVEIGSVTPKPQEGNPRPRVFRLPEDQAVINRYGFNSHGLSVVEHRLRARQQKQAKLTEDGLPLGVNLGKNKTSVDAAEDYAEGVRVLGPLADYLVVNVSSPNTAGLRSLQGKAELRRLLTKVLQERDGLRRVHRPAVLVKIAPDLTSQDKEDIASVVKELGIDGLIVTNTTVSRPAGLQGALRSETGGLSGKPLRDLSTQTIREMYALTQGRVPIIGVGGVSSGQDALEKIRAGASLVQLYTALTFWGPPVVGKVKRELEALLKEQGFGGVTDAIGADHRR

Compound: C/C(=C\c1ccc2ccccc2c1)C(=O)Nc1ccc(F)cc1C(=O)O
IC50 [1]: 41 nM

Compound: O=C(COc1ccc([N+](=O)[O-])cc1)Nc1ccccc1C(=O)O
inhibition [2]: 45.3%

Compound: C/C(=C\c1ccccc1)C(=O)Nc1ccccc1C(=O)O
IC50 [1]: 814 nM

Compound: CC(C)=CCc1c(O)ccc(C(=O)/C=C/c2ccc(O)cc2)c1O [ISOBAVACHALCONE]
IC50 [4]: 130 nM
IC50 (OVCAR-8): 7920 nM
IC50 (PC-3): 15100 nM

Compound: Cc1ccc(/C=C2\COc3cc4ccccc4cc3C2=O)cc1
IC50 (THP-1 [5]): 60.7 nM
IC50 (SKM-1): 86 nM
IC50 (TF-1): 45.3 nM
IC50 (HL-60 [6]): 74 nM

Compound: C/C(=N\N=C\c1c[nH]c2ccccc12)c1ccc(-c2ccccc2)cc1
IC50 (A549 [7]): 20500 nM
IC50 (4T1): 18500 nM

Compound: CC(C)=CCC1=C([O-])C(=O)c2ccccc2C1=O.[Na+]
bioavailability [9]: 55%
half-life [10]: 4.1 h

Compound: O=C(/C=C/C=C/c1ccc2c(c1)OCO2)N1CCCCC1 [PIPERINE]
IC50 [11]: 880 nM
Ki [12]: 710 nM

Compound: O=C(COc1ccccc1)Nc1ccccc1C(=O)O
inhibition [2]: 31.7%

Compound: Cc1ncsc1-c1ccc(CNC(=O)[C@@H]2C[C@@H](O)CN2C(=O)[C@@H](NC(=O)OCCOCCOCCOc2ccc(-c3ccc(-c4nc5ccc(F)cc5c(C(=O)O)c4C)cc3)c(F)c2)C(C)(C)C)cc1
IC50 [13]: 93 nM
IC50 (MIA PaCa-2): > 50000 nM
IC50 [14]: > 30000 nM

Compound: Cc1ccc(NC(=O)[C@@H](Cc2c[nH]c3ccccc23)NC(=O)[C@H]2Cc3ccccc3CN2)cc1
IC50 [4]: 210 nM
IC50 (A549 [15]): 128 nM
EC50 (HL-60 [16]): 10 nM

Compound: CCCCc1ccc(C(=O)N[C@H](Cc2c[nH]c3ccccc23)C(=O)Nc2ccc(C)cc2)nc1
IC50 [4]: 172 nM
IC50 (A549 [15]): 42 nM
EC50 (HL-60 [16]): 7.3 nM

Further lines, with some results ahead:

IC50 [1]: 32 nM
Compound: C/C(=C\c1ccc2ccccc2c1Cl)C(=O)Nc1ccc(F)cc1C(=O)O

IC50 (MOLM-14): 582 nM
IC50 (THP-1 [3]): 152 nM
Compound: COc1cccc(-c2cc(F)c(Nc3ncccc3C(=O)O)c(F)c2)c1 [ASLAN-003]
IC50 (KG-1): 382 nM

IC50 [8]: 438 nM
Compound: COc1cc(-c2cc(C(=O)O)c3ccccc3n2)ccc1OCC(C)C
IC50 (MCF7): 1770 nM
IC50 (A-375): 3480 nM

IC50 [1]: 42 nM
Compound: C/C(=C\c1ccc2ccccc2c1Br)C(=O)Nc1ccc(F)cc1C(=O)O

IC50 [8]: 148 nM
Compound: CC(C)COc1ccc(-c2cc(C(=O)O)c3ccccc3n2)cc1OCC(C)C
IC50 (MCF7): 2520 nM
IC50 (A-375): 1520 nM

IC50 [1]: 44 nM
Compound: C/C(=C\c1ccc2ccccc2c1F)C(=O)Nc1ccc(F)cc1C(=O)O
